Measurements published in PubChem BioAssay (NCI).
Several values for one entry are separate records, joined by “and”; a condition that tells them apart may be missing. Identical values can stand only once.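 Tested at 5 concentrations; 48 h exposure; 96-well plates; endpoints linearly interpolated, else capped at highest concentration. GI50 = concentration required for 50% inhibition of growth. TGI marks complete inhibition of growth.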

Key:
Test in all cases: growth of human tumour cells (NCI), 48 h
HCT-15 colon = test system: HCT-15 colon
COLO 205 colon = test system: COLO 205 colon
UACC-62 melanoma = test system: UACC-62 melanoma
SN12C renal = test system: SN12C renal
SNB-19 CNS = test system: SNB-19 CNS
MALME-3M melanoma = test system: MALME-3M melanoma
MDA-MB-231 breast = test system: MDA-MB-231 breast
RXF 393 renal = test system: RXF 393 renal
KM12 colon = test system: KM12 colon
HOP-62 NSCLC = test system: HOP-62 NSCLC
HCC-2998 colon = test system: HCC-2998 colon
LOX IMVI melanoma = test system: LOX IMVI melanoma
NCI/ADR-RES ovarian = test system: NCI/ADR-RES ovarian
CCRF-CEM leukemia = test system: CCRF-CEM leukemia
HL-60(TB) leukemia = test system: HL-60(TB) leukemia
CAKI-1 renal = test system: CAKI-1 renal
OVCAR-4 ovarian = test system: OVCAR-4 ovarian
NCI-H23 lung = test system: NCI-H23 lung
DU-145 prostate = test system: DU-145 prostate
SK-MEL-2 melanoma = test system: SK-MEL-2 melanoma
OVCAR-3 ovarian = test system: OVCAR-3 ovarian
EKVX NSCLC = test system: EKVX NSCLC
SF-539 CNS = test system: SF-539 CNS
HCT-116 colon = test system: HCT-116 colon
M14 melanoma = test system: M14 melanoma
PC-3 prostate = test system: PC-3 prostate
NCI-H460 lung = test system: NCI-H460 lung
SNB-75 CNS = test system: SNB-75 CNS
SW-620 colon = test system: SW-620 colon
A549 NSCLC = test system: A549 NSCLC
SF-268 CNS = test system: SF-268 CNS
NCI-H226 lung = test system: NCI-H226 lung
TK-10 renal = test system: TK-10 renal
MDA-MB-435 = test system: MDA-MB-435
U251 CNS = test system: U251 CNS
T-47D breast = test system: T-47D breast
K-562 leukemia = test system: K-562 leukemia
ACHN renal = test system: ACHN renal
UACC-257 melanoma = test system: UACC-257 melanoma
SK-OV-3 ovarian = test system: SK-OV-3 ovarian
786-0 renal = test system: 786-0 renal
OVCAR-5 ovarian = test system: OVCAR-5 ovarian
HS 578T breast = test system: HS 578T breast
MCF7 breast = test system: MCF7 breast
IGROV1 ovarian = test system: IGROV1 ovarian
SK-MEL-28 melanoma = test system: SK-MEL-28 melanoma
MDA-N = test system: MDA-N
MOLT-4 leukemia = test system: MOLT-4 leukemia
UO-31 renal = test system: UO-31 renal
SF-295 CNS = test system: SF-295 CNS
HT29 colon = test system: HT29 colon
BT-549 breast = test system: BT-549 breast
SK-MEL-5 melanoma = test system: SK-MEL-5 melanoma
NCI-H522 lung = test system: NCI-H522 lung
SR leukemia = test system: SR leukemia
OVCAR-8 ovarian = test system: OVCAR-8 ovarian
A498 renal = test system: A498 renal
RPMI-8226 leukemia = test system: RPMI-8226 leukemia

## COCC1OC(S(=O)(=O)c2ccccc2)C(O)C(OC)C1OC (configuration not stated)
HCT-15 colon
  TGI: > 100 µM
COLO 205 colon
  TGI: > 100 µM
UACC-62 melanoma
  TGI: > 100 µM
SN12C renal
  TGI: > 100 µM
SNB-19 CNS
  TGI: > 100 µM
MALME-3M melanoma
  TGI: > 100 µM
MDA-MB-231 breast
  TGI: > 100 µM
RXF 393 renal
  TGI: > 100 µM
KM12 colon
  TGI: > 100 µM
HOP-62 NSCLC
  TGI: > 100 µM
HCC-2998 colon
  TGI: > 100 µM
LOX IMVI melanoma
  TGI: > 100 µM
NCI/ADR-RES ovarian
  TGI: > 100 µM
CCRF-CEM leukemia
  TGI: > 100 µM
HL-60(TB) leukemia
  TGI: > 100 µM
CAKI-1 renal
  TGI: > 100 µM
OVCAR-4 ovarian
  TGI: > 100 µM
NCI-H23 lung
  TGI: > 100 µM
DU-145 prostate
  TGI: > 100 µM
SK-MEL-2 melanoma
  TGI: > 100 µM
OVCAR-3 ovarian
  TGI: > 100 µM
EKVX NSCLC
  TGI: > 100 µM
SF-539 CNS
  TGI: > 100 µM
HCT-116 colon
  TGI: > 100 µM
M14 melanoma
  TGI: > 100 µM
PC-3 prostate
  TGI: > 100 µM
NCI-H460 lung
  TGI: > 100 µM
SNB-75 CNS
  GI50: > 100 µM and 12.1 µM
  TGI: > 100 µM
SW-620 colon
  TGI: > 100 µM
A549 NSCLC
  TGI: > 100 µM
SF-268 CNS
  TGI: > 100 µM
NCI-H226 lung
  TGI: > 100 µM
TK-10 renal
  TGI: > 100 µM
MDA-MB-435
  TGI: > 100 µM
U251 CNS
  TGI: > 100 µM
T-47D breast
  TGI: > 100 µM
K-562 leukemia
  TGI: > 100 µM
ACHN renal
  TGI: > 100 µM
UACC-257 melanoma
  TGI: > 100 µM
SK-OV-3 ovarian
  TGI: > 100 µM
786-0 renal
  TGI: > 100 µM
OVCAR-5 ovarian
  TGI: > 100 µM
HS 578T breast
  TGI: > 100 µM
MCF7 breast
  TGI: > 100 µM
IGROV1 ovarian
  TGI: > 100 µM
SK-MEL-28 melanoma
  TGI: > 100 µM
MDA-N
  TGI: > 100 µM
MOLT-4 leukemia
  TGI: > 100 µM
UO-31 renal
  TGI: > 100 µM
SF-295 CNS
  TGI: > 100 µM
HT29 colon
  TGI: > 100 µM
BT-549 breast
  TGI: > 100 µM
SK-MEL-5 melanoma
  TGI: > 100 µM
NCI-H522 lung
  TGI: > 100 µM
SR leukemia
  TGI: > 100 µM
OVCAR-8 ovarian
  TGI: > 100 µM

## COC(=O)NNC(c1ccc(Cl)cc1)c1ccc(Cl)cc1
HCT-15 colon
  TGI: 31.1 µM
COLO 205 colon
  TGI: 38 µM
UACC-62 melanoma
  TGI: 30.9 µM
SN12C renal
  TGI: 35.2 µM
SNB-19 CNS
  TGI: 41.1 µM
MALME-3M melanoma
  TGI: 43.8 µM
MDA-MB-231 breast
  TGI: 25.8 µM
RXF 393 renal
  TGI: 23.7 µM
KM12 colon
  TGI: 37 µM
HCC-2998 colon
  TGI: 27.6 µM
A498 renal
  TGI: 34.9 µM
LOX IMVI melanoma
  TGI: 32 µM
NCI/ADR-RES ovarian
  TGI: 39.8 µM
CCRF-CEM leukemia
  TGI: 54.1 µM
HL-60(TB) leukemia
  TGI: 64.4 µM
RPMI-8226 leukemia
  TGI: 52 µM
CAKI-1 renal
  TGI: 35.7 µM
OVCAR-4 ovarian
  TGI: 55.3 µM
NCI-H23 lung
  TGI: 34.6 µM
DU-145 prostate
  TGI: > 100 µM
SK-MEL-2 melanoma
  TGI: 26.6 µM
OVCAR-3 ovarian
  TGI: 31.9 µM
EKVX NSCLC
  TGI: 40 µM
SF-539 CNS
  TGI: 39 µM
HCT-116 colon
  TGI: 30.3 µM
M14 melanoma
  TGI: 31.9 µM
PC-3 prostate
  TGI: 30.5 µM
NCI-H460 lung
  TGI: 35.2 µM
SNB-75 CNS
  TGI: 69 µM
SW-620 colon
  TGI: 70 µM
A549 NSCLC
  TGI: 32.8 µM
SF-268 CNS
  TGI: 49 µM
NCI-H226 lung
  TGI: 35.3 µM
TK-10 renal
  TGI: 33.6 µM
MDA-MB-435
  TGI: > 100 µM
U251 CNS
  TGI: 40.3 µM
T-47D breast
  TGI: 68.2 µM
K-562 leukemia
  TGI: 53 µM
UACC-257 melanoma
  TGI: 39 µM
SK-OV-3 ovarian
  TGI: 58.6 µM
786-0 renal
  TGI: 35 µM
OVCAR-5 ovarian
  TGI: 40.3 µM
HS 578T breast
  TGI: 48.1 µM
MCF7 breast
  TGI: 75.6 µM
IGROV1 ovarian
  TGI: 34 µM
SK-MEL-28 melanoma
  TGI: 43 µM
MDA-N
  TGI: 45.6 µM
MOLT-4 leukemia
  TGI: 55.9 µM
UO-31 renal
  TGI: 25.2 µM
HT29 colon
  TGI: 34.2 µM
BT-549 breast
  TGI: 32.4 µM
SK-MEL-5 melanoma
  TGI: 31.2 µM
NCI-H522 lung
  TGI: 38.7 µM
SR leukemia
  TGI: 54.8 µM
OVCAR-8 ovarian
  TGI: 42.4 µM
